Reference: patent US12054510B2, “2′ and/or 5′ amino-acid ester phosphoramidate 3′-deoxy adenosine derivatives as anti-cancer compounds” (Nucana plc, priority 2014, dated 2024)

Key:
HL-60 [1] = experiment: ATP ViaLight plus cell viability assay; assay type: cell-based, Human; conditions: HL-60
Procedure: (§1) Certain compounds of the invention were subjected to further studies to test the cytotoxic activity of certain compounds of the invention and also to measure their activity against 4 haematological cancer cell lines • TdT positive CEM (Human ALL) • TdT negative K562 (Human CML) • TdT negative H1-60 (Human ANLL) • RL (CRL-2261) non-HD lymphoma • The concentrations of the active metabolite dATP (Cordycepin triphosphate) in these cell lines was also measured. • The cytotoxic activity and the intracellular 3′-dATP concentrations were also studied in the presence of hENT1, Adenosine Kinase (AK) and Adenosine Deaminase pharmacological inhibitors in CEM and RL cancer cell lines. Said inhibitors that mimic known cancer resistance mechanisms. Methods Cell Culture
(§2) HL-60, K562, CCRF-CEM and RL cell lines were cultured in RPMI-1640 medium (Sigma Aldrich, UK), which were supplemented with 10% Fetal Bovine Serum (FBS) (PAA Laboratories), 1% amphotericin B (5.5 ml) and 1% penicillin/streptomycin (5.5 ml) (PAA Laboratories) and grown in flasks at 37° C. incubator with 5% CO2.
(§3) The amount of ATP was used as a measurement of cell number and cell viability. ATP ViaLight™ plus assay kit (Lonza, USA: Product No. LT07-121) to detect ATP in cells treated in luminescence compatible 96 well plates (initial concentration of cells was 1×10^4 cells/well) with cordycepin and ProTides at concentrations of: 0, 0.1, 0.5, 1, 5 and 10 μM, followed by incubation for 72 hours at 37° C. incubator with 5% CO2. For inhibitor studies, 10 μM of NBTI or 1 μM EHNA or A-134974 was added and left for 5 minutes before adding the drugs (see section 5 for inhibitor details).
(§4) After incubation, 50 μl of cell lysis reagent was added to the 96 well plates to release the intracellular ATP, followed by 100 μl of ATP monitoring reagent (AMR). The luminescent values of each well were determined using FLUOstar OPTIMA microplate reader (BMG Labtech) which convert ATP into light by using luciferase enzyme. Therefore, the amount of luminescence produced was directly proportional to the amount of ATP.
(§5) The dose-response curves of cytotoxicity of the drugs was determined using non-linear regression analysis of percentage cell viability versus concentration and EC50 values were obtained. The intracellular assay was conducted in five replicates for each condition. Intracellular assay was determined using paired t test (two-tailed) analysis of 3′ ATP/ATP concentration and p-values were obtained. For all the analysis, Prism Software program (GraphPad Software) was used and Microsoft Powerpoint® 2013 was used to plot the results.

K562 [2] = experiment: ATP ViaLight plus cell viability assay; assay type: cell-based, Human; conditions: K562
Procedure: as §1, §2, §3, §4, §5

RL (CRL-2261) = experiment: ATP ViaLight plus cell viability assay; assay type: cell-based
Procedure: as §1, §2, §3, §4
(§6) Cell lines were treated in the same way as described above but before treatment with drugs, a number of inhibitors were added: • 1) Nitrobenzylthioinosine (NBTI) (Sigma-Aldrich, St. Louis, MO, product # N2255) blocks nucleoside transporters • 2) EHNA hydrochloride (Sigma-Aldrich, St. Louis, MO, product # E114) blocks adenosine deaminase • 3) Adenosine kinase inhibitor A-134974 dihydrochloride hydrate (Sigma-Aldrich, St. Louis, MO, product # A2846): blocks adenosine kinase
as §5

MOLT-4 = experiment: CellTiterGlo cell viability assay, initial screening; assay type: cell-based; conditions: MOLT-4; 72 hr; Table II
Procedure: (§7) In vitro viability assays were performed to assess the effects of compounds on cell viability in 7 selected cell lines over 72 hr using the CellTiterGlo (CTG, Promega-G7573) assay. The tests were performed in duplicates with treatment of compounds at 9 points, 3.16 folds titration in 96 well plates over ˜72 hr. The compound starting concentrations were […]. Cell viability assay using CellTiterGlo in 96-well plate were performed. The compound treatment was 72 hrs, under standard growth conditions, and in duplicate. Compounds were dissolved to 40 mM with thawed […]. Compounds were serially diluted at 3.16 fold in thawed DMSO, and warmed to 37° C. before being dissolved in media (2 μl+200 μl). After compounds were dissolved in media (media was also warmed to 37° C.). Media containing compounds were warmed to 37° C. in incubator and then compounds in media were added to cell plates (50 μl+50 μl), in duplicates. The compounds final concentrations were from […] to 19.9 nM. All compound solubilities were checked and recorded again, then the plates were transferred to CO2 tissue culture incubator immediately and incubated for 3 days. DMSO final concentration is 0.5%.

MCF-7 = experiment: as above; assay type: cell-based; conditions: MCF-7; 72 hr; Table II
Procedure: as §7

HepG2 = experiment: as above; assay type: cell-based; conditions: HepG2; 72 hr; Table II
Procedure: as §7

HL-60 [3] = experiment: as above; assay type: cell-based; conditions: HL-60; 72 hr; Table II
Procedure: as §7

K562 [4] = experiment: as above; assay type: cell-based; conditions: 72 hr, Table II
Procedure: as §7

KG-1 = experiment: as above; assay type: cell-based; conditions: KG-1; 72 hr; Table II
Procedure: as §7

CCRF-CEM = experiment: as above; assay type: cell-based; conditions: CCRF-CEM; 72 hr; Table II
Procedure: as §7

CEM (TdT+ve) = experiment: ATP ViaLight plus cell viability assay; assay type: cell-based, Human; conditions: CEM (TdT+ve)
Procedure: as §1, §2, §3, §4, §6, §5

BxPC-3-Luc = experiment: Solid tumour and haematological malignancy assay (CellTiterGlo); assay type: cell-based; conditions: 72 hr, Table VII
Procedure: In vitro viability assay were performed to assess the effects of compounds on cell viability in selected cell lines over 72 hr using the CellTiterGlo (CTG, Promega-G7573) assay. The tests were performed in duplicates with treatment of compounds at 9 points, 3.16 folds titration in 96 well plates over ˜72 hr. The compound starting concentrations were […]. Cell viability assay using CellTiterGlo in 96-well plate were performed. Compound treatment 72 hrs, standard growth conditions, duplicates. Compounds were dissolved to 40 mM with thawed […]. Compounds were serially diluted at 3.16 fold in thawed DMSO, and warmed to 37° C. before being dissolved in media (2 μl+200 μl). After compounds were dissolved in media, media containing compounds were warmed to 37° C. in incubator and then compounds in media were added to cell plates (50 μl+50 μl) in duplicates. The compounds' final concentrations were from 198M to 19.9 nM. All compound solubilities were checked and recorded again, then the plates were transferred to CO2 tissue culture incubator immediately and incubated for 3 days. DMSO final concentration is 0.5%.

| SMILES | (FD) fold difference compared to Cordycepin = Cordycepin IC50/ProTide IC50 (HL-60 [1]) | (FD) fold difference compared to Cordycepin = Cordycepin IC50/ProTide IC50 (K562 [2]) | (FD) fold difference compared to Cordycepin = Cordycepin IC50/ProTide IC50 (RL (CRL-2261)) | M.I. %: maximum percentage inhibition of cell viability (MOLT-4) | M.I. %: maximum percentage inhibition of cell viability (MCF-7) | M.I. %: maximum percentage inhibition of cell viability (HepG2) | M.I. %: maximum percentage inhibition of cell viability (HL-60 [3]) | M.I. %: maximum percentage inhibition of cell viability (K562 [4]) | M.I. %: maximum percentage inhibition of cell viability (KG-1) | M.I. %: maximum percentage inhibition of cell viability (CCRF-CEM) | (FD) fold difference compared to Cordycepin = Cordycepin IC50/ProTide IC50 (CEM (TdT+ve)) | MI % (BxPC-3-Luc) |
| --- | --- | --- | --- | --- | --- | --- | --- | --- | --- | --- | --- | --- |
| CCCCCOC(=O)[C@H](CC(C)C)NP(=O)(OC[C@@H]1C[C@@H](O)[C@H](n2cnc3c(N)ncnc32)O1)Oc1cccc2ccccc12 (mixture of isomers) [D, (2S)-pentyl 2-(((((2S,4R,5R)-5-(6-amino-9H-purin-9-yl)-4-hydroxytetrahydrofuran-2-yl)methoxy)(naphthalen-1-yloxy)phosphoryl)amino)-4-methylpentanoate] | 2 | 3 | 5 | 100% | 100% | 99% | 100% | 99% | 100% | 100% | 3 | – |
| CC(NP(=O)(OC[C@@H]1C[C@@H](O)[C@H](n2cnc3c(N)nc(Cl)nc32)O1)Oc1cccc2ccccc12)C(=O)OCc1ccccc1 (stereo in doubt) [S, (2R)-benzyl 2-((((2S,4R,5R)-5-(6-amino-2-chloro-9H-purin-9-yl)-4-hydroxytetrahydrofuran-2-yl)methoxy)(naphthalen-1-yloxy)phosphorylamino)propanoate] | – | – | – | – | – | – | – | – | – | – | – | 82.6% |
| Nc1nc(Cl)nc2c1ncn2[C@@H]1O[C@H](CO)C[C@H]1O [2-Cl-cordycepin, 3′-deoxy-2-chloroadenosine, reference compound] | – | – | – | – | – | – | – | – | – | – | – | −1.3% |
